Data: patent publication US20200246364A1, “MEDICAL APPLICATION OF COMPOSITION OF FRUCTOSE-1,6-BISPHOSPHATE AND BLOOD CONCENTRATION STABILIZER THEREOF” (ZHEJIANG UNIVERSITY, priority 2017, published 2020)
Marks after values point to notes of the source that are not given here.

Columns and labels:
glioma cells KNS-89 = assay: Lactic acid released by glioma cells (glycolysis); assay type: cell-based, human
Protocol: (§2) Human glioma cell strains (U87-MG, KNS-89, SHG-44) were respectively incubated in culture media containing 0.8 mM of trisodium fructose-1,6-bisphosphate salt, and 1.6 mM of trisodium fructose-1,6-bisphosphate salt, and 1.6 mM of 2-deoxyglucose, and the contents of lactic acid as the final glycolytic product released by the cells in the culture media were measured after 12 h, 24 h, 36 h, and 48 h. […] Human glioma cell strain (U87-MG) was incubated in the culture medium containing 0.8 mM of trisodium fructose-1,6-bisphosphate salt for 1 h, 3 h, 6 h, 12 h, 24 h, 36 h, and 48 h, and level changes of key metabolic enzymes in the glycolytic pathway of cells were measured by Western Blot at the respective time points.

mouse tumor models = details: injected intraperitoneally; cited from earlier work
glioma cells U87-MG = assay: Lactic acid released by glioma cells (glycolysis); assay type: cell-based, human
Protocol: as §2

SHG-44 [1] = assay: Intracellular glycolytic intermediates (LC-MS/MS) and FBP in culture medium; assay type: cell-based, human; details: SHG-44, 1.6 mM, 36 h
Protocol: (§1) Rat glioma cell strains (C6), human glioma cell strains (U87-MG, U-251, SHG-44) and patient-derived glioma cells (tumor 1, tumor 3) were incubated in a culture medium containing 1.6 mM of trisodium fructose-1,6-bisphosphate, and after 36 h, levels of glycolytic intermediates including glucose-6-phosphate G6P, fructose-1,6-bisphosphate FBP, glyceraldehyde 3-phosphate (GAP), dihydroxyacetone phosphate (DHAP), and […] 3-phosphoglyceric acid PGA in respective cells were measured by using LC-MS/MS; and additionally, the levels of fructose-1,6-bisphosphate in each glioma cell strain at 12 h and 36 h were measured.

[2] = system: patient-derived glioma cells Tumor 3; assay: as above; assay type: cell-based, human; details: Tumor 3, 1.6 mM, 36 h
Protocol: as §1

U87-MG = assay: as above; assay type: cell-based, human; details: 1.6 mM, 36 h
Protocol: as §1

[3] = system: patient-derived glioma cells Tumor 1; assay: as above; assay type: cell-based, human; details: Tumor 1, 1.6 mM, 36 h
Protocol: as §1

SHG-44 [4] = assay: Mitochondrial oxidative phosphorylation in glioma cells (ATP/ADP, NADH/NAD+, ATP); assay type: cell-based, human
[5] = system: mouse liver cancer cells H22; assay: Tumor growth of mouse liver cancer H22 model; assay type: in vivo, ICR mice; details: FBP 500 mg/kg, i.g., 7 days; for Tumor weight: three times per day
Protocol: The treatment was performed three times per day, in which metformin or sitagliptin was administrated 0.5 h before trisodium fructose-1,6-bisphosphate. This is repeated for 7 days, and situations of the animals during the experiments were observed. The animals were sacrificed 24 hours after the last treatment, the tumor masses were taken out and weighed, and the average tumor weight in each group of animals was used as an efficacy index.

U251 = assay: Reactive oxygen species and mitochondrial membrane potential; assay type: cell-based, human; details: U251, 0.8 mM
chronic epilepsy in rats = details: administered intragastrically; cited from earlier work
U87MG = assay: Tricarboxylic acid circulation intermediates in cytoplasm and mitochondria (LC-MS/MS); assay type: cell-based, human; details: 1.6 mM, 36 h
Protocol: Human glioma cell strain (U87MG) was cultured in a medium containing 1.6 mM of trisodium fructose-1,6-bisphosphate for 36 h, and then cytoplasm and mitochondria were separated. Levels of tricarboxylic acid circulation intermediates in cytoplasm and mitochondria were respectively measured by LC-MS/MS.

C6 = assay: Intracellular glycolytic intermediates (LC-MS/MS) and FBP in culture medium; assay type: cell-based, rat; details: C6, 1.6 mM, 36 h
Protocol: as §1

O=C(COP(=O)(O)O)[C@@H](O)[C@H](O)[C@H](O)COP(=O)(O)O [FBP, fructose-1,6-bisphosphate]
Relative levels of lactic acid (compared with the control group) (glioma cells KNS-89; KNS-89, 0.8 mM, 12 h): 0.75 ± 0.11
Relative levels of lactic acid (compared with the control group) (glioma cells KNS-89; KNS-89, 0.8 mM, 24 h): 0.94 ± 0.16
Relative levels of lactic acid (compared with the control group) (glioma cells KNS-89; KNS-89, 0.8 mM, 36 h): 0.78 ± 0.09
Relative levels of lactic acid (compared with the control group) (glioma cells KNS-89; KNS-89, 1.6 mM, 12 h): 0.87 ± 0.03
Relative levels of lactic acid (compared with the control group) (glioma cells KNS-89; KNS-89, 1.6 mM, 24 h): 0.83 ± 0.20
Relative levels of lactic acid (compared with the control group) (glioma cells KNS-89; KNS-89, 1.6 mM, 36 h): 0.62 ± 0.10
effective dose for mouse tumor models (mouse tumor models): 400-450 mg/kg/time
Relative levels of lactic acid (compared with the control group) (glioma cells U87-MG; 0.8 mM, 12 h): 0.96 ± 0.13
Relative levels of lactic acid (compared with the control group) (glioma cells U87-MG; 0.8 mM, 24 h): 0.73 ± 0.05
Relative levels of lactic acid (compared with the control group) (glioma cells U87-MG; 0.8 mM, 36 h): 0.56 ± 0.18
Relative levels of lactic acid (compared with the control group) (glioma cells U87-MG; 1.6 mM, 12 h): 1.09 ± 0.11
Relative levels of lactic acid (compared with the control group) (glioma cells U87-MG; 1.6 mM, 24 h): 0.71 ± 0.05
Relative levels of lactic acid (compared with the control group) (glioma cells U87-MG; 1.6 mM, 36 h): 0.39 ± 0.03
Increase folds of intracellular DHAP (compared with the control group) (SHG-44 [1]): 12.48 folds
Increase folds of intracellular F6P (compared with the control group) (SHG-44 [1]): 3.12 folds
Increase folds of intracellular FBP (compared with the control group) (SHG-44 [1]): 10.74 folds
Increase folds of intracellular GAP (compared with the control group) (SHG-44 [1]): 21.03 folds
Increase folds of intracellular PGA (compared with the control group) (SHG-44 [1]): 2.04 folds
Increase folds of intracellular DHAP (compared with the control group) [2]: 55.58 folds
Increase folds of intracellular F6P (compared with the control group) [2]: 14.12 folds
Increase folds of intracellular FBP (compared with the control group) [2]: 22.94 folds
Increase folds of intracellular GAP (compared with the control group) [2]: 76.22 folds
Increase folds of intracellular PGA (compared with the control group) [2]: 1.86 folds
Increase folds of intracellular DHAP (compared with the control group) (U87-MG): 944.4 folds
Increase folds of intracellular F6P (compared with the control group) (U87-MG): 47.31 folds
Increase folds of intracellular FBP (compared with the control group) (U87-MG): 149.69 folds
Increase folds of intracellular GAP (compared with the control group) (U87-MG): 1222.86 folds
Increase folds of intracellular PGA (compared with the control group) (U87-MG): 3.03 folds
Increase folds of intracellular DHAP (compared with the control group) [3]: 4.9 folds
Increase folds of intracellular F6P (compared with the control group) [3]: 2.02 folds
Increase folds of intracellular FBP (compared with the control group) [3]: 8.27 folds
Increase folds of intracellular GAP (compared with the control group) [3]: 7.22 folds
Increase folds of intracellular PGA (compared with the control group) [3]: 1.13 folds
ratio of ATP/ADP (CON = 1.00) (SHG-44 [4]; SHG-44, 0.8 mM or 1.6 mM, 36 h): 3.82 ± 0.68
ratio of NADH/NAD+ (CON = 1.00) (SHG-44 [4]; SHG-44, 0.8 mM or 1.6 mM, 36 h): 3.40 ± 0.15
ATP level (SHG-44 [4]; SHG-44, 36 h, vs control group): significantly increased
Tumor weight ([5]; H22, metformin experiment, Met 150 mg/kg, Con 1.66 ± 0.29): 0.91 ± 0.23 g
Tumor weight ([5]; H22, sitagliptin experiment, STG 20 mg/kg, Con 1.48 ± 0.34): 0.67 ± 0.28 g
inhibition of tumor growth (inhibition ratio) ([5]; H22, metformin 150 mg/kg, sitagliptin 20 mg/kg): 54.39%
Relative level of mitochondrial membrane potential (compared with the control group) (U251; 12 h): 1.08 ± 0.03
Relative level of reactive oxygen species (compared with the control group) (U251; 12 h): 1.20 ± 0.04
Relative level of mitochondrial membrane potential (compared with the control group) (U251; 24 h): 1.18 ± 0.01
Relative level of reactive oxygen species (compared with the control group) (U251; 24 h): 1.19 ± 0.03
Relative level of mitochondrial membrane potential (compared with the control group) (U251; 48 h): 0.6 ± 0.06
Relative level of reactive oxygen species (compared with the control group) (U251; 48 h): 1.42 ± 0.03
Relative level of mitochondrial membrane potential (compared with the control group) (U251; 72 h): 0.4 ± 0.07
Relative level of reactive oxygen species (compared with the control group) (U251; 72 h): 1.82 ± 0.03
long-term effective dose for chronic epilepsy (chronic epilepsy in rats): 100 to 200 mg/kg/day
Relative level of Ac-CoA (compared with the control group) (U87MG; cytoplasm): 0.02 ± 0.01
Relative level of Cit (compared with the control group) (U87MG; cytoplasm): 0.28 ± 0.01
Relative level of OAA (compared with the control group) (U87MG; cytoplasm): 0.19 ± 0.01
Relative level of α-KG (compared with the control group) (U87MG; cytoplasm): 1.20 ± 0.12*^
Relative level of Ac-CoA (compared with the control group) (U87MG; mitochondria): 1.38 ± 0.11
Relative level of Cit (compared with the control group) (U87MG; mitochondria): 1.02 ± 0.06
Relative level of OAA (compared with the control group) (U87MG; mitochondria): 2.02 ± 0.13
Relative level of α-KG (compared with the control group) (U87MG; mitochondria): 2.42 ± 0.04
Increase folds of intracellular DHAP (compared with the control group) (C6): 66.04 folds
Increase folds of intracellular F6P (compared with the control group) (C6): 19.89 folds
Increase folds of intracellular FBP (compared with the control group) (C6): 92.22 folds
Increase folds of intracellular GAP (compared with the control group) (C6): 132.85 folds
Increase folds of intracellular PGA (compared with the control group) (C6): 2.2 folds
